The structures appear in SMILES notation. “And” between values parts separate entries of the source, which are not always exact repeats. Equal entries are not always repeated. Inconclusive results and toxic doses are left out.

The test system of the assay is CD2F1 mice, L1210 leukemia ip, survival T/C. Kind of assay: NCI In Vivo Anticancer Drug Screen. Data for tumor model L1210 Leukemia (intraperitoneal) in CD2F1 (CDF1) mice. The conditions noted are these: higher = longer survival. An outline of the steps:
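Ratio T/C, where T is the treated-group value and C the vehicle-dosed control value, from mice implanted with a transplantable tumor.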

Setting [1] is: endpoint: mean survival time, dose: 12.5 mg/kg/injection, schedule: Q01DX009 (ip), vehicle: saline with Tween-80.
[2] abbreviates: endpoint: mean survival time, dose: 25.0 mg/kg/injection, schedule: Q01DX009 (ip), vehicle: saline with Tween-80.
[3] abbreviates: endpoint: mean survival time, dose: 25.0 mg/kg/injection, schedule: Q04DX003 (ip), vehicle: saline with Tween-80.
Where [4] appears, read: endpoint: mean survival time, dose: 50.0 mg/kg/injection, schedule: Q01DX009 (ip), vehicle: saline with Tween-80.
Where [5] appears, read: endpoint: mean survival time, dose: 50.0 mg/kg/injection, schedule: Q04DX003 (ip), vehicle: saline with Tween-80.
[6] abbreviates: endpoint: mean survival time, dose: 100.0 mg/kg/injection, schedule: Q01DX009 (ip), vehicle: saline with Tween-80.
Where [7] appears, read: endpoint: mean survival time, dose: 100.0 mg/kg/injection, schedule: Q04DX003 (ip), vehicle: saline with Tween-80.
Setting [8] is: endpoint: mean survival time, dose: 200.0 mg/kg/injection, schedule: Q04DX003 (ip), vehicle: saline with Tween-80.
[9] abbreviates: endpoint: mean survival time, dose: 50.0 mg/kg/injection, schedule: Q04DX002 (ip), vehicle: saline with Tween-80.
Setting [10] is: endpoint: mean survival time, dose: 100.0 mg/kg/injection, schedule: Q04DX002 (ip), vehicle: saline with Tween-80.
The mark [11] stands for this setting: endpoint: mean survival time, dose: 200.0 mg/kg/injection, schedule: Q04DX002 (ip), vehicle: saline with Tween-80.
The mark [12] stands for this setting: endpoint: mean survival time, dose: 100.0 mg/kg/injection, schedule: Q01DX001 (ip), vehicle: saline.
[13] abbreviates: endpoint: mean survival time, dose: 200.0 mg/kg/injection, schedule: Q01DX001 (ip), vehicle: saline.
The mark [14] stands for this setting: endpoint: mean survival time, dose: 400.0 mg/kg/injection, schedule: Q01DX001 (ip), vehicle: saline.
Where [15] appears, read: endpoint: mean survival time, dose: 200.0 mg/kg/injection, schedule: Q01DX009 (ip), vehicle: saline with Tween-80.

Turning to `O=C(N/N=C/c1cc2c(cc1[N+](=O)[O-])OCO2)c1ccccc1`, the T/C was 100 % of control (endpoint: mean survival time, dose: 12.5 mg/kg/injection, schedule: Q01DX009 (ip), vehicle: other); 104 % of control (endpoint: mean survival time, dose: 25.0 mg/kg/injection, schedule: Q01DX009 (ip), vehicle: other); 94 % of control (endpoint: mean survival time, dose: 50.0 mg/kg/injection, schedule: Q01DX009 (ip), vehicle: other); 96 % of control (endpoint: mean survival time, dose: 100.0 mg/kg/injection, schedule: Q01DX009 (ip), vehicle: other); 94 % of control (endpoint: mean survival time, dose: 200.0 mg/kg/injection, schedule: Q01DX009 (ip), vehicle: other).
As to `Nc1nc(S)c(N)c(=S)[nH]1`, the T/C (endpoint: mean survival time, dose: 75.0 mg/kg/injection, schedule: Q01DX001 (ip), vehicle: carboxymethylcellulose (CMC)) is 102 % of control.
For `CC#CC(=O)SCCNC(=O)CCNC(=O)CC(C)(C)C`, the T/C is 101 % of control under setting [1]; 95 % of control under setting [2]; 106 % of control under setting [3]; 98 % of control under setting [4]; 94 % of control under setting [5]; 88 % of control under setting [6]. The T/C under setting [7] was 98 % of control.
Regarding `Cc1ccc(N=Nc2c(N)nc(N)nc2N)cc1C`, the T/C by setting is: under setting [7], 96 % of control; under setting [8], 102 % of control; (endpoint: mean survival time, dose: 400.0 mg/kg/injection, schedule: Q04DX003 (ip), vehicle: saline with Tween-80) 108 % of control.
Regarding `COc1cc(/C=C/C=C/C(=O)N2CCCCC2)ccc1O`, the T/C was 97 % of control under setting [1], 100 % of control under setting [2] and 113 % of control under setting [4].
For `COc1cc[n+](CCc2c[nH]c3ccccc23)cc1`, the T/C is 97 % of control (endpoint: mean survival time, dose: 12.5 mg/kg/injection, schedule: Q01DX009 (ip), vehicle: saline sonified); 97 % of control (endpoint: mean survival time, dose: 12.5 mg/kg/injection, schedule: Q04DX003 (ip), vehicle: saline with Tween-80); 98 % of control (endpoint: mean survival time, dose: 25.0 mg/kg/injection, schedule: Q01DX009 (ip), vehicle: saline sonified); 101 % of control under setting [3]; 100 % of control (endpoint: mean survival time, dose: 50.0 mg/kg/injection, schedule: Q01DX009 (ip), vehicle: saline sonified); 104 % of control under setting [5].
`COC1CCC(/C=C(\C#N)C2CCC([N+](=O)[O-])CC2)CC1` (stereo unspecified): the T/C is, setting by setting: under setting [2], 86 % of control; under setting [4], 88 % of control; (endpoint: mean survival time, dose: 400.0 mg/kg/injection, schedule: Q01DX009 (ip), vehicle: saline with Tween-80) 94 % of control.
In the case of `CSc1cccnn1`, the T/C by setting is: (endpoint: mean survival time, dose: 100.0 mg/kg/injection, schedule: Q04DX003 (ip), vehicle: saline) 93 % of control; (endpoint: mean survival time, dose: 200.0 mg/kg/injection, schedule: Q04DX003 (ip), vehicle: saline) 98 % of control; (endpoint: mean survival time, dose: 400.0 mg/kg/injection, schedule: Q04DX003 (ip), vehicle: saline) 95 % of control.
Turning to `c1ccc2c(NCCCCCCNc3c4ccccc4nc4ccccc34)c3ccccc3nc2c1`, the T/C is 103 % of control (endpoint: mean survival time, dose: 0.62 mg/kg/injection, schedule: Q01DX009 (ip), vehicle: Klucel (hydroxypropylcellulose) (HPC)); 114 % of control and 123 % of control and 111 % of control (endpoint: mean survival time, dose: 1.25 mg/kg/injection, schedule: Q01DX009 (ip), vehicle: Klucel (hydroxypropylcellulose) (HPC)); 115 % of control and 109 % of control (endpoint: mean survival time, dose: 2.5 mg/kg/injection, schedule: Q01DX009 (ip), vehicle: Klucel (hydroxypropylcellulose) (HPC)); 123 % of control and 111 % of control (endpoint: mean survival time, dose: 5.0 mg/kg/injection, schedule: Q01DX009 (ip), vehicle: Klucel (hydroxypropylcellulose) (HPC)); 111 % of control (endpoint: mean survival time, dose: 10.0 mg/kg/injection, schedule: Q01DX009 (ip), vehicle: Klucel (hydroxypropylcellulose) (HPC)); 104 % of control (endpoint: mean survival time, dose: 20.0 mg/kg/injection, schedule: Q01DX009 (ip), vehicle: Klucel (hydroxypropylcellulose) (HPC)).
For the compound `CCCCOC(=O)Cc1c(C)[nH]c2ccc(-c3ccccc3)cc12`, the T/C is, setting by setting: under setting [9], 102 % of control; under setting [10], 102 % of control; under setting [11], 97 % of control.
Turning to `O=C(O)CSc1nc(-c2ccccc2)c(-c2ccccc2)n1-c1ccccn1`, the T/C is 96 % of control and 97 % of control (endpoint: mean survival time, dose: 12.5 mg/kg/injection, schedule: Q01DX009 (ip), vehicle: water); 91 % of control and 100 % of control (endpoint: mean survival time, dose: 25.0 mg/kg/injection, schedule: Q01DX009 (ip), vehicle: water); 96 % of control and 102 % of control (endpoint: mean survival time, dose: 50.0 mg/kg/injection, schedule: Q01DX009 (ip), vehicle: water); 100 % of control and 102 % of control (endpoint: mean survival time, dose: 100.0 mg/kg/injection, schedule: Q01DX009 (ip), vehicle: water).
With `BrC/C(=N\N1CCCCCC1)c1ccc(Br)cc1`, the T/C reads like this: under setting [12], 94 % of control; under setting [13], 92 % of control; under setting [14], 92 % of control.
For `Cc1ccccc1C1CCC(=O)OC1=O` (stereo unspecified), the T/C is, setting by setting: (endpoint: mean survival time, dose: 100.0 mg/kg/injection, schedule: Q01DX001 (ip), vehicle: saline with Tween-80) 97 % of control; under setting [10], 100 % of control; (endpoint: mean survival time, dose: 200.0 mg/kg/injection, schedule: Q01DX001 (ip), vehicle: saline with Tween-80) 95 % of control; under setting [11], 103 % of control; (endpoint: mean survival time, dose: 400.0 mg/kg/injection, schedule: Q01DX001 (ip), vehicle: saline with Tween-80) 94 % of control; (endpoint: mean survival time, dose: 400.0 mg/kg/injection, schedule: Q04DX002 (ip), vehicle: saline with Tween-80) 100 % of control.
With `Cc1cc(Cl)ccc1NC(=O)Nc1ccccc1C(N)=O`, the T/C is, setting by setting: under setting [4], 95 % of control; under setting [6], 95 % of control; under setting [15], 91 % of control.
With `CC(C)(C)NC(=O)CCC(CC(=O)NC(C)(C)C)C1([N+](=O)[O-])CCCCC1` (stereo unspecified), the T/C reads like this: under setting [6], 92 % of control; under setting [15], 86 % of control.
On to `CCOC(=O)c1cc(-c2ccc(Cl)cc2)nc2c1ccc1ccccc12`, for which the T/C under setting [12] was 100 % of control, the T/C under setting [13] is 96 % of control and the T/C under setting [14] was 108 % of control.
In the case of `Cc1ccc(C(=O)Nc2cccc(-n3cnc4c(=O)[nH]c(N)nc43)c2)cc1S(=O)(=O)F`, the T/C is 90 % of control under setting [9], 101 % of control under setting [10] and 86 % of control under setting [11].
As for `CN(C)/N=N/c1[nH]ncc1C(N)=O`, the T/C by setting is: (endpoint: mean survival time, dose: 150.0 mg/kg/injection, schedule: Q01DX001 (oral), vehicle: saline) 121 % of control; (endpoint: mean survival time, dose: 1200.0 mg/kg/injection, schedule: Q01DX001 (oral), vehicle: saline) 158 % of control.
Consider `NC(C(=O)[O-])C(=O)[O-].NC1CCCCC1N.[Pt+4]`, for which the T/C runs as follows: (endpoint: median survival time, dose: 1.0 mg/kg/injection, schedule: Q04DX003 (ip), vehicle: water) 109 % of control; (endpoint: median survival time, dose: 2.0 mg/kg/injection, schedule: Q04DX003 (ip), vehicle: water) 124 % of control.
Turning to `CCOC(=O)Nc1cc(N)c(N)c(=O)[nH]1`, the T/C reads like this: (endpoint: mean survival time, dose: 100.0 mg/kg/injection, schedule: Q01DX001 (ip), vehicle: carboxymethylcellulose (CMC)) 102 % of control; (endpoint: mean survival time, dose: 200.0 mg/kg/injection, schedule: Q01DX001 (ip), vehicle: carboxymethylcellulose (CMC)) 96 % of control; (endpoint: mean survival time, dose: 400.0 mg/kg/injection, schedule: Q01DX001 (ip), vehicle: carboxymethylcellulose (CMC)) 102 % of control.
Turning to `O=[N+]([O-])O.[Sc]`, the T/C is 93 % of control (endpoint: mean survival time, dose: 6.25 mg/kg/injection, schedule: Q01DX009 (ip), vehicle: saline); 90 % of control (endpoint: mean survival time, dose: 12.5 mg/kg/injection, schedule: Q01DX009 (ip), vehicle: saline); 88 % of control (endpoint: mean survival time, dose: 25.0 mg/kg/injection, schedule: Q01DX009 (ip), vehicle: saline); 100 % of control under setting [12]; 93 % of control under setting [14].
As to `CCc1cc(CC)c(CC)c(Br)c1CC`, the T/C was 98 % of control under setting [4], 108 % of control under setting [6], 98 % of control under setting [7] and 101 % of control under setting [8].
Regarding `CCOc1ccc2c(c1)c(CC(=O)O)c(C)n2C`, the T/C was 95 % of control (endpoint: mean survival time, dose: 100.0 mg/kg/injection, schedule: Q01DX001 (ip), vehicle: other); 98 % of control (endpoint: mean survival time, dose: 200.0 mg/kg/injection, schedule: Q01DX001 (ip), vehicle: other); 98 % of control (endpoint: mean survival time, dose: 400.0 mg/kg/injection, schedule: Q01DX001 (ip), vehicle: other).
As for `CCCC(Br)C(=O)OCC` (stereo unspecified), the T/C was 96 % of control under setting [4], 93 % of control under setting [6] and 93 % of control under setting [15].

The values above are taken from PubChem BioAssay AID256 (DTP/NCI, 2004).
